Test results: paper PMC11845649, “Unravelling physical and radiobiological effects of proton boron fusion reaction with anionic metallacarboranes ([o-COSAN]^-) in breast cancer cells” (EJNMMI Research, 2025)

Key:
U87 glioblastoma cells = tested on: U87 glioblastoma cells; set-up: method as in PMID 36373493; conditions: protons at 675 keV, dose 9 Gy; cited from earlier work
[1] = tested on: MDA-MB-231 breast cancer cells; assay: MTT cell viability / cytotoxic activity; format: cell-based; conditions: MDA-MB-231, MTT, mean ± SD of two independent experiments
Method: MDA-MB-231 breast cancer cells were purchased from American Type Culture Collection (ATCC, HTB-26). Cells were cultured in DMEM medium supplemented with 10% fetal bovine serum (FBS) and incubated at 37 °C in a humidified 5% CO2 atmosphere. Na[o-COSAN] stock solutions at 1 mM were prepared in DMEM medium without supplements and kept at -20 °C. Cell viability was assessed using the MTT assay following a method similar to the one previously described. Briefly, MDA-MB-231 cells (0.8 − 5 × 10^4 cells/well) were seeded in 96-well plates and left to adhere. After 24 h, cells were incubated with increasing concentrations of Na[o-COSAN] from 1 µM to 1000 µM for 6 and 24 h. After incubation, the medium was removed, and each well was incubated with an MTT solution (0.5 mg/mL in medium) for 3 h at 37 °C. Then, the medium was discarded, and the formazan crystals were solubilized in 200 µL DMSO. Absorbance was measured at 570 nm using an Varioskan TM LUX microplate reader (Thermo Scientific, Waltham, MA, USA). The dose-response curve fit of the absorbance as a function of log10[concentration] was performed using GraphPad Prism software (version 9.5.1) to assess viability and IC50 (concentration at which half the cell population is expected to die) at 6 and 24 h. […]

MDA-MB-231 cells [2] = assay: Cellular uptake by nuclear microscopy (STIM, PIXE, EBS), Co as signature; format: cell-based
Method: MDA-MB-231 cells (10^4-10^5 cells) were seeded on 100 nm thick silicon nitride (Si3N4) membranes (Silson Ltd., UK), allowed to adhere, and incubated for 24 h in medium containing Na[o-COSAN] at 50 µM. The culture medium was removed and the monolayer of cells on the membranes was washed with cold PBS, immediately frozen at -80 °C, transferred to a cryostat at -25 °C and allowed to dry overnight for subsequent analysis of [o-COSAN]^− uptake. […] Briefly, a 2.0 MeV focused proton beam of 3 × 4 µm^2 was raster scanned across the target cell on the silicon nitride window, simultaneously delivering images of density by STIM (Scanning Transmission Ion Microscopy), elemental distributions by PIXE (Particle Induced X-ray Emission) and matrix constituents by EBS (Elastic Backscattering Spectroscopy). Spectra recorded and/or extracted from maps in selected regions of the cell allowed Co concentrations to be determined in major cell compartments, such as the cytoplasm and nucleus. At least three cells treated with Na[o-COSAN] at a concentration of 50 µM were analyzed, and Co concentrations were measured using a minimum of five spectra acquired from both the nucleus and cytoplasm regions. The average concentrations for each of these regions were calculated based on the individual spectra. Data acquisition, spectra processing and concentration calculation were performed using the OMDAQ-3 program (Oxford Microbeams Ltd., UK) (http://www.microbeams.co.uk/ Accessed 12-6-2024). Elemental concentrations are expressed as µg/g dry weight.
The uptake of [o-COSAN]^− in single MDA-MB-231 cells was analysed using a combination of nuclear microscopy techniques: STIM, PIXE, and EBS. These techniques allow correlative imaging and quantification of elemental distributions. […] These morphological details were essential for correlating with the elemental distributions obtained from PIXE and assessing localization. […] Therefore, considering the stoichiometry of the carborane cluster [C2B9H11]^−2.in the [o-COSAN]^− molecule, the boron-11 (^11B) content can be estimated. […] This is important information provided by nuclear microscopy. It will be needed for future advanced dosimetry studies, including PBFR.

[3] = tested on: MDA-MB-231 tumor-bearing mice; assay: Biodistribution, boron by ICP-OES in MDA-MB-231 xenograft model; format: in vivo, mice (Balb/cSlc-nu/nu); conditions: 7.5 mgB/kg intravenously
Method: MDA-MB-231 tumor-bearing mice (Balb/cSlc-nu/nu, female, 5–6 weeks old, 14–20 g, Sankyo Labo Service Co., Ltd., Japan) were prepared by injecting subcutaneously (s.c.) a suspension of MDA-MB-231 cells (8.0 × 10^5 cells/mouse) directly into the right thigh. The mice were kept on a regular chow diet and water and maintained under 12 h light/dark cycle in an ambient atmosphere. When the tumor diameter became 5 to 7 mm, the mice were injected via the tail vein with a 200 µL PBS solution of Na[o-COSAN] (7.5 mgB/kg). At 1 h after injection, the mice were lightly anesthetized, and blood samples were collected by cardiac puncture. The mice were then sacrificed by cervical dislocation and dissected. Heart, liver, lung, kidney, spleen, muscle, brain and tumor were excised, washed with 0.9% NaCl solution, and weighed. The excised organs were digested with 1 mL of HNO3 at 90 °C for 1 h, and then the digested samples were diluted with distilled water. After filtering through a hydrophobic filter, boron concentration was measured by an inductively coupled plasma optical emission spectroscopy (ICP-OES, iCAP 7400 Duo, Thermo Fisher Scientific Inc., USA). All animal experiments were conducted in accordance with the Guide for the Care and Use of Laboratory Animals approved by the Animal Use Review Board and Ethical Committee of Tokyo Institute of Technology (Permission number: D2021007).
The biodistribution studies provide important preclinical information regarding the identity of the potential target organs and tissues. Na[o-COSAN] (7.5 mgB/kg) was administrated intravenously to MDA-MB-231 breast cancer xenograft model mice, and boron uptake in the target organs was evaluated at 1 and 4 h post-injection.

MDA-MB-231 cells [4] = assay: Clonogenic cell survival after proton irradiation (PBFR, 675 keV); format: cell-based; conditions: for surviving fraction vs control irradiated cells: 24 h incubation, 8 Gy protons, p < 0.05
Method: (§1) Proton irradiation was performed in air using the external microbeam facility at the Van de Graaff accelerator of the CTN/IST. Briefly, a focused 2.0 MeV proton beam of ∼70 × 70 µm^2 was used and rastered scanned over a cell monolayer placed in a cell plate, positioned prependicular to the proton beam path. The raster scan duration and the irradiation time of 10 s ensured irradiation homogeneity. The maximum achievable scan area is in the range of 0.08–0.13 cm^2 (corresponding to 40% of the total area of one well, 0.32 cm^2, in a 96-well plate). A proton beam current in the pA range was used, corresponding to a proton intensity of 2–6 × 10^6 protons/s. Prior to irradiation, part of the culture medium was removed, as described elsewhere. The proton beam energy was tuned to 675 keV (main resonance energy of the proton-boron nuclear reaction) within the cell layer by controlling the air path length and using Mylar^R foils as attenuators. The details of the irradiation geometry are described above and illustrated in Fig. 2.
MDA-MB-231 cells were seeded in each well of a 6 well plate and incubated for 24 h. Cells were incubated with 50 and 100 µM of Na[o-COSAN], for 24 h at 37 °C, and then irradiated with protons, as described in 2.3.1. After irradiation, fresh medium was added and cells were incubated for 7 days in the same conditions. After 7 days of incubation, the medium was aspirated and cells were fixed and stained with Giemsa’s azur eosin methylene blue solution diluted 5% v/v in buffer solution. Finally, colonies were manually counted. Moreover, a CellProfiler pipeline was used to check the size of the different colonies observed in order to assess whether proton irradiation interfered with the capacity of replication of MDA-MB-231 cells.
The efficiency of [o-COSAN]^- was evaluated after irradiation with 8 Gy of protons in MDA-MB-231 cells. The irradiation with protons was carried out assuming that the proton-boron nuclear reaction resonance energy of 675 keV was reached within the cell monolayer.

MDA-MB-231 cells [5] = assay: γ-H2AX foci quantification after proton irradiation; format: cell-based
Method: as §1
MDA-MB-231 cells were seeded at a density of 10,000 cells per well in an eight-well chamber slide and allowed to attach overnight. Cells were incubated with 50 and 100 µM of Na[o-COSAN], for 24 h at 37 °C, and then irradiated with protons, as described in 2.4. MDA-MB-231 cells were washed three times with PBS and fixed with 4% formaldehyde in PBS for 15 min. After washing with PBS, cells were permeabilized with Triton X-100 (0.5%) at room temperature for 5 min followed by two washing steps with 1% BSA in PBS. Then, cells were incubated with an anti-γ-H2AX primary antibody (mouse anti-γ-H2AX (ser139), Stressgen) at 2 µg/mL for 1 h. […] Cells were analyzed at under ×64 magnification. Several high-quality 2D images were randomly collected in each slide and analyzed using a modified Speckle Count pipeline from the freeware CellProfiler. At least 200 nuclei were analyzed per experiment per dose. […]
The efficiency of [o-COSAN]^- was evaluated after irradiation with 8 Gy of protons in MDA-MB-231 cells. […]

[6] = set-up: method as in doi:10.1021/cr00010a005, PMID 34944987, PMID 34576098; conditions: cited from earlier work

## ferrabis(dicarbollide) [Na[o-FESAN]]
U87 glioblastoma cells
  cell viability and survival after proton irradiation: significant loss of cell viability and survival

## sodium salt of cobaltabisdicarbollide [Na[o-COSAN]]
[1]; 6 h incubation
  IC50: 245 ± 94 µM
[1]; 24 h incubation
  IC50: 137 µM
MDA-MB-231 cells [2]; 24 h, 50 µM, Fig. 3C
  Co concentration, nucleus compared to cytoplasm: significantly higher concentrations of Co in the nucleus compared to the cytoplasm
MDA-MB-231 cells [2]; estimated from Co concentration and cluster stoichiometry, 24 h, 50 µM
  11B content in the nucleus: 425 µg/g
MDA-MB-231 cells [2]; estimated from Co concentration, 24 h, 50 µM
  11B atoms in the nuclear volume of a single cell: approximately 2.3 × 10^9 atoms
MDA-MB-231 cells [2]; single MDA-MB-231 cells, 24 h incubation with 50 µM, PIXE, dry weight
  average Co concentration in the nucleus: 153 µg/g
[3]; 1 and 4 h post-injection
  tumor boron uptake: high and maintained after 4 h
[3]; 1 h post-injection
  boron accumulation in liver and lungs: significant accumulation of boron
[3]; 1 h post-injection, relative to liver and lungs
  boron accumulation in kidney and spleen: less
[3]; 4 h post-injection
  boron in target organs after 4 h: considerable clearance of boron
MDA-MB-231 cells [4]; 50 µM
  surviving fraction vs control irradiated cells: significant decrease
MDA-MB-231 cells [4]; 100 µM
  surviving fraction vs control irradiated cells: significant decrease
MDA-MB-231 cells [4]; 100 µM, irradiated 8 Gy protons, p < 0.001
  decrease of average colony size vs cells irradiated with protons in the absence of compound: 40%
MDA-MB-231 cells [4]; 100 µM, irradiated 8 Gy protons, p < 0.01
  decrease of average colony size vs non-irradiated counterparts: 30%
MDA-MB-231 cells [4]; non-irradiated, vs control conditions
  effect on surviving fraction of treated non-irradiated cells: minor cytostatic effects
MDA-MB-231 cells [5]; irradiated cells (8 Gy protons) incubated with 50 µM
  increase in average number of γ-H2AX foci: 55%
MDA-MB-231 cells [5]; irradiated cells (8 Gy protons) incubated with 100 µM
  increase in average number of γ-H2AX foci: 27%
MDA-MB-231 cells [5]; non-irradiated cells
  γ-H2AX foci induction without irradiation: does not induce new γ-H2AX foci
[6]
  stability: remarkably stable
  water solubility: water-soluble
